# “And” between values parts separate entries of the source, which are not always exact repeats. Identical values can stand only once. Like-named read-outs stand apart in the source and are kept apart here.
# Assays:
# E. coli TrxR [1] = molecular target: T1, E. coli TrxR (Escherichia coli, UniProt P0A9P4); assay: E. coli TrxR inhibition, thioredoxin dependent DTNB reduction assay; type: biochemical
# Procedure: Further we examined the effect of ebselen in the reduction of disulfide by E. coli Trx and TrxR using both DTNB and insulin as substrates.
# All the benzisoselenazol-3(2H)-one and bisbenzisoselenazol-3(2H)-one derivatives were tested as potential E. coli TrxR inhibitors by standard DTNB assay. […] The reactions were started by adding 1 mM DTNB to the mixture of 100 nM TrxR, 2 μM Trx, 240 μM NADPH, and different concentration of inhibitor (1-40 μM). […] The reactions were started by adding 6 nM TrxR at room temperature. Inhibition constants (Ki) for all the compounds were measured from Dixon plot, which plots 1/v versus […], I=Inhibitor concentration).
# [2] = Glutathione peroxidase (GPx) activity of the compounds; type: biochemical; settings: relative; EbSe 6 = 1
# HEK 293T cells = HEK 293T cells growth (cytotoxicity); type: cell-based; settings: Homo sapiens, HEK-293T; read-out: IG50 for HEK 293T
# [3] = system: Mycobacterium tuberculosis; assay: Sensitivity of Mycobacterium tuberculosis to ebselen, radiometric BACTEC 460 system; type: cell-based; settings: medium with 5 g/l albumin, estimate
# Helicobacter pylori = assay: Bactericidal effects on Helicobacter pylori; type: cell-based; settings: read-out: minimal bactericidal concentration (MBC)
# Source text: The inhibition of ebselen on H. pylori was therefore investigated. […] Taken together, our results strongly support that the inhibition of ebselen on these glutathione deficient bacteria is due to the oxidization of thioredoxin system by ebselen.
# E. coli = type: cell-based, Escherichia coli; settings: 2, 4, 8 μM, LB medium, 16 h
# E. coli TrxR [4] = molecular target: T1, E. coli TrxR; assay: TrxR activity in bacterial cell lysates, insulin coupled reduction endpoint assay; type: cell-based; settings: 5 μM silver and 2, 5, 10 μM ebselen, 1 h
# Procedure: The reaction continued for 30 min. […] A sample without E. coli Trx was used as the background control.
# [5] = molecular target: E. coli ribonucleotide reductase (Escherichia coli, UniProt P00452); assay: Inhibition of E. coli ribonucleotide reductase; type: biochemical; settings: data not shown
# E. coli ribonucleotide reductase, sequence (P00452 whole entry): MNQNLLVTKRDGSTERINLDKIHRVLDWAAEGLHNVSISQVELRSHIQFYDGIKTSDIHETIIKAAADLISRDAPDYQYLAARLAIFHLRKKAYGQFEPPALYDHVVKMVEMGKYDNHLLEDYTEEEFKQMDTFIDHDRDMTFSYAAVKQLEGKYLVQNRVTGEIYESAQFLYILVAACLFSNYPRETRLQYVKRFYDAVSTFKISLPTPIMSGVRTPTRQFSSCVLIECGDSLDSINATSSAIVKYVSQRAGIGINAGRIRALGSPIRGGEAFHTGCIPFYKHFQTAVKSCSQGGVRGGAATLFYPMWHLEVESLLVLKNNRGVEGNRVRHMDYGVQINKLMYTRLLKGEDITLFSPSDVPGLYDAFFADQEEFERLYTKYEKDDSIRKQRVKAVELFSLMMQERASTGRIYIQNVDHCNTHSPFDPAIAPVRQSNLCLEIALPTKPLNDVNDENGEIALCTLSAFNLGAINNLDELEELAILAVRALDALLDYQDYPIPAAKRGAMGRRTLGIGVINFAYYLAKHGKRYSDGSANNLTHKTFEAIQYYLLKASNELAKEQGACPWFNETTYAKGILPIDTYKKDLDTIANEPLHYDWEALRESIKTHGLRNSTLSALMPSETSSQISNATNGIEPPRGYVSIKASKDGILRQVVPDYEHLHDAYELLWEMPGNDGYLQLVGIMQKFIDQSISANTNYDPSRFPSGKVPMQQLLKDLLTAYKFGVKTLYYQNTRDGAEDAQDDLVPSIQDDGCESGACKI
# E. coli TrxR [6] = molecular target: T1, E. coli TrxR; assay: E. coli TrxR inhibition, thioredoxin dependent DTNB reduction assay; type: biochemical; settings: Lineweaver-Burk plots, reduction of DTNB; listed as ebselen; read-out: Ki (dissociation constant of inhibitor-TrxR complex), competitive inhibition of E. coli TrxR
# Mammalian TrxR = molecular target: T2, Mammalian TrxR (Homo sapiens, UniProt Q16881); settings: from ref (3) / (32); cited from earlier work
# T2 sequence (Q16881 151-649 limits assumed): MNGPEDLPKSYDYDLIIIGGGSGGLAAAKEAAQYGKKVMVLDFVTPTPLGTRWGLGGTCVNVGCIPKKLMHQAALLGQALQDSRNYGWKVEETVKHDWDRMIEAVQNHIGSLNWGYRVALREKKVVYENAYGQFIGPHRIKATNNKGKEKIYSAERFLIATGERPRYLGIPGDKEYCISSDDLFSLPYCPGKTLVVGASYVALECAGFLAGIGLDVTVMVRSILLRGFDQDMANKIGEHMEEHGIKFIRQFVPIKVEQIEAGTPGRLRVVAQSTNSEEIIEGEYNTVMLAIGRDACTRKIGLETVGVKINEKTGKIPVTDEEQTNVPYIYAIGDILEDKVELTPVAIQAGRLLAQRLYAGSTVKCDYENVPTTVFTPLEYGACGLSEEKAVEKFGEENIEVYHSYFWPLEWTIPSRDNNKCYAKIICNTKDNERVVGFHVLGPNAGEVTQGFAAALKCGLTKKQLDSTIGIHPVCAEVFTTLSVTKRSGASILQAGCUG
# E. coli gshA^− strain = settings: with 5 μM silver, 1 h
# Procedure: (§1) The absorbance at 600 nm were measured to detect the growth of the bacteria.
# (§2) E. coli strains were cultured until the OD600 got around to 0.4, and then the bacteria were treated with 5 μM silver and different concentrations of ebselen (2, 5, 10 μM).
# Staphylococcus aureus = settings: cited from earlier work
# E. coli NHHJ = settings: cited from earlier work
# E. coli Trx-(SH)2 = E. coli Trx-(SH)2 (Escherichia coli, UniProt P0AA25); settings: fluorescence spectroscopy, ref (32); cited from earlier work
# E. coli Trx-(SH)2, sequence (P0AA25 whole entry): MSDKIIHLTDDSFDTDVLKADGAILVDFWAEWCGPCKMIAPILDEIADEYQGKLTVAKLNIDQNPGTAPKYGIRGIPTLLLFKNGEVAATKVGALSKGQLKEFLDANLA
# H. pylori strains = assay: MIC against H. pylori strains; settings: Helicobacter pylori
# GSH = GSH amount in bacterial cell lysates; settings: wt E. coli, 5 μM silver and 10 μM ebselen, 1 h
# Procedure: To analyze the TrxR activity and GSH amount in the bacteria, the cells were harvested by centrifugation and washed with PBS, then the cells were resuspended in TE buffer (50 mM Tris-HCl, pH 7.5, 1 mM EDTA) containing protease inhibitor cocktail and lysed by sonication. The cell lysates were obtained by centrifugation at 13,000 rpm for 30 min and the protein concentration were measured by Lowry protein assay (Bio-Rad DC).
# To measure GSH levels, 10 μg of the cell lysates was added in the solution containing 50 nM GR, 50 mM Tris-HCl, pH 7.5, 200 μM NADPH, 1 mM EDTA, 1 mM DTNB. The absorbance at 412 nm was measured for 5 min.
# GSH amounts were measured as the description in material and methods.
# recombinant rat TrxR = molecular target: T3, recombinant rat TrxR (Rattus norvegicus, UniProt O89049); assay: Inhibition of mammalian (recombinant rat) TrxR
# T3 sequence (O89049 1-499): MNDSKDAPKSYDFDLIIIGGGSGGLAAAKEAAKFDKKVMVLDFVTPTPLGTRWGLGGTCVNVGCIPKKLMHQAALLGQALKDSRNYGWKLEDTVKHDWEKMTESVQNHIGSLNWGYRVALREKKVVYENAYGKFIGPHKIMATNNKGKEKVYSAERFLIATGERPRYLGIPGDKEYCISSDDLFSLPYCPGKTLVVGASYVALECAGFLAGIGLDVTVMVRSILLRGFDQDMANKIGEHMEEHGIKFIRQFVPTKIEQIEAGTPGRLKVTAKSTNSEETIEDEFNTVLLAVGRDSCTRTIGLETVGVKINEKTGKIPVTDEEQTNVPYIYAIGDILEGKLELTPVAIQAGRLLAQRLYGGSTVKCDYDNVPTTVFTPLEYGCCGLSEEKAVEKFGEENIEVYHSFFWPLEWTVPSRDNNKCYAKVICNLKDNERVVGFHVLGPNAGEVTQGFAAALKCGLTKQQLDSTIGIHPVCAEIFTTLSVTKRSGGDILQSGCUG
# Gor DHB4 E. coli = assay: Inhibition of bacterial growth (MIC), Gor DHB4 E. coli; settings: Escherichia coli, DHB4E.COLI, read-out: MIC for Gor DHB4 E. coli
# Source text: (§3) Here E. coli DHB4 strains wt, gshA^−, gor^−, oxyR^− were used as the model to test the antibiotics activity of these ebselen derivatives.
# gshA^− DHB4 E. coli = assay: Inhibition of bacterial growth (MIC), gshA^− DHB4 E. coli
# Source text: as §3
# wild type DHB4 E. coli = assay: Inhibition of bacterial growth (MIC), wild type DHB4 E. coli; settings: Escherichia coli, DHB4E.COLI, read-out: MIC for wild type DHB4 E. coli
# Source text: as §3
# Bacillus subtilis = assay: Growth inhibition of Bacillus subtilis by ebselen and silver, A600
# Procedure: Bacterial growth was determined as A600 after 16 h at 37° C.
# HeLa cells = settings: 24 h
# Procedure: RAW 264.7, J774, HEK 293T, Hela cells were cultured in DMEM medium (GIBCO) supplemented with 10% FCS, 100 units/ml penicillin, and 100 μg/ml streptomycin at 37° C. in a 5% CO2 incubator. The cells were seeded in 96 micro-well plates and grown till 70-80% confluency. The cells were treated with different combination of ebselen and silver for 24 h. The cell toxicity was detected by MTT assay (15). Data are means±SD of three independent experiments.
# To check whether there are synergistic toxic effects on mammalian cells, the toxicity of combination of ebselen and silver towards HeLa cells was studied. […] Nearly confluent HeLa cells were treated with combination of indicating concentration of ebselen and its analogues and silver for 24 h. then the cell toxicity was detected by MTT assay.
# wild type (wt) E. coli = assay: Growth of wild type E. coli culture treated 1 h with silver and ebselen; settings: with 5 μM silver
# Procedure: as §1, §2
# T1 sequence (P0A9P4 whole entry): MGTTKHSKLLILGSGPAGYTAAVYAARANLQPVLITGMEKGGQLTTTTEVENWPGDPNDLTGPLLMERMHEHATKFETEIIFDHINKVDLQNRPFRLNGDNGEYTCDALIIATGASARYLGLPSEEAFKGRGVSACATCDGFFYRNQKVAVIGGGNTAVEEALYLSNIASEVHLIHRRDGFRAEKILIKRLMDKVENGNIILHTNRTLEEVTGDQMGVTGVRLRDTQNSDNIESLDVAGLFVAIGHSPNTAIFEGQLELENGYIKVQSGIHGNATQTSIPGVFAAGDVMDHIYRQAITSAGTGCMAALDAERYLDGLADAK
compound,measurement,setting,value
"O=c1c2ccccc2[se]n1-c1ccccc1 [EbSe 6, 2-phenyl-1,2-benzisoselenazol-3(2H)-one]",inhibition of E. coli TrxR (in words),E. coli TrxR [1],strongly inhibited
same,IC50,"E. coli TrxR [1]; DTNB assay, 100 nM TrxR, 2 μM Trx, 240 μM NADPH, 1 mM DTNB, read-out: IC50 for E. coli TrxR",6000 nM
same,Ki,"E. coli TrxR [1]; Dixon plot, 6 nM TrxR, Trx 1, 2 or 4 μM, read-out: Ki for E. coli TrxR",300 nM
same,Relative GPx activity,[2],1
same,IC50,HEK 293T cells,120000 nM
same,MIC,[3],< 20 µg/mL
same,MBC,Helicobacter pylori; macrolide resistant strains,12.5 µg/mL
same,MBC,Helicobacter pylori; two macrolide sensitive strains,3.12 µg/mL
same,effect of ebselen alone on bacterial growth,E. coli,did not show the inhibition effects
same,TrxR activity in bacterial lysates,E. coli TrxR [4],not affected
same,inhibition of E. coli ribonucleotide reductase,[5],effective direct inhibitor
same,Ki,E. coli TrxR [6],150 nM and 140 nM
same,Km,Mammalian TrxR,2.5 µM
same,"kcat, mammalian TrxR",Mammalian TrxR,9.8 s⁻¹
same,ebselen concentration that inhibited growth,E. coli gshA^− strain,2 µM
same,concentration inhibiting growth,Staphylococcus aureus; Staphylococcus aureus 209P,0.20 µg/mL
same,MIC for 90% of S. aureus strains,Staphylococcus aureus,1.56 μg per ml
same,mode of action on S. aureus,Staphylococcus aureus,bacteriocidal
same,sensitivity of Staphyloccus aureus relative to E. coli,Staphylococcus aureus,100 fold
same,concentration inhibiting growth,Staphylococcus aureus; methicillin resistant Staphylococcus aureus,0.20 μg per ml
same,concentration required to inhibit growth,E. coli NHHJ,up to 50 μg per ml
same,second-order rate constant of direct reduction by reduced E. coli Trx,E. coli Trx-(SH)2,2e+07 M⁻¹ s⁻¹
same,MIC,H. pylori strains,3.13 µg/mL
same,MIC,H. pylori strains; NCTC11637,3.13 µg/mL
same,GSH amount in cell lysate,GSH,obviously lower than the others
same,IC50,recombinant rat TrxR,> 10000 nM
same,inhibition of mammalian TrxR (in words),recombinant rat TrxR,no inhibitory activity
same,MIC,Gor DHB4 E. coli,15 µM
same,sensitivity of gshA^− / gor^− strains compared with wild type,"gshA^− DHB4 E. coli; E. coli strains wt, gshA^−, gor^−",Wild type bacteria were more resistant than gor^− and gshA^− strains
same,MIC,"gshA^− DHB4 E. coli; Escherichia coli, read-out: MIC for gshA^− DHB4 E. coli",26 µM
same,MIC,wild type DHB4 E. coli,40 µM
same,effect on growth of B. subtilis,Bacillus subtilis; ebselen at 2 μM alone,did not inhibit the growth
same,effect on antibacterial activity of silver,Bacillus subtilis; ebselen at 2 μM with silver,strongly helped the antibacterial activity of silver
same,synergistic toxicity with silver,HeLa cells; 5 μM,did not show synergistic of toxicity
same,synergistic toxicity with silver,"HeLa cells; 20 μM, silver at high concentration",enhanced the toxicity of silver
same,ebselen concentration that inhibited growth,wild type (wt) E. coli,10 µM

# Reference: patent publication US11013730B1, “Composition comprising selenazol or thiazalone derivatives and silver and method of treatment therewith” (Thioredoxin Systems AB, priority 2014, dated 2021)
